Reference: patent US20040076659A1, “Additive for livestock feeds” (priority 1994, published 2004)

Experiments:
[1] = tested on: rumen microbial cells enzyme source; assay: Microbial protein adsorption to ground barley straw; design: species or system cows
Protocol: For the cellulose adhesion tests, the microbial enzyme source was resuspended and tested for adhesion on to a cellulose. substrate (barley straw, with 4% CP and ground through 0.5 mm sieve). […] 0.1 g of the straw in 5 ml of a bacterial cell-enzyme inoculum suspension, and then following the supernatant protein change with time. Readings were taken at 10, 20, 30, 60, and 120 min. At the end of the adsorption period, the assay contents were centrifuged at 2500 g max for 10 min to precipitate the solids, and the protein in the supernatant was precipitated out by 15% TCA solution and quantified by the Bicichoninic method (Smith et al., “Measurement of protein using bicinchonic acid,” Anal. Biochem. 150:76 (1984)). […]

[2] = tested on: wethers; assay: In vivo digestibility trial, timothy hay sprayed with Tween 80; conditions: sheep; about 0.3% Tween 80 in the ration
Protocol: Four […] weighing (72.5±15.0 kg) fitted with both rumen and duodenal cannula, were offered chopped medium quality timothy hay ad libitum. The hay was either sprayed with 500 ml water or 50 ml of […] dissolved in 500 ml of water. The feed was offered in two equal portions, at 08:30 and 20:30 hr. Water was available ad libitum. The experiment was designed as a 2×2 latin square with two 14-day adaptation, two 7-day collection periods. Estimates of the rates of passage of the two treated hays were made using chromium mordanted fibre (Cr) for the particulate phase and cobalt-ethylene diaminetetracetic acid (Co-EDTA) for the liquid phase. The method of Uden et al., “Investigation of chromium, cerium and cobalt as markers in digesta: Rate of Passage studies,” J. Sci. of Food and Agriculture 31:625-632 (1980), was used in the preparation of both markers. The sheep were adapted to the feed in individual pens, and then moved into digestibility cages for total collection and marker infusion. During the collection period, records of feed intake, faecal and urine output were maintained. 250 g subsamples of the faeces were collected daily, subsampled for DM determination, while the rest was dried under a drought oven. Urine was collected under 1N sulphuric acid. On the last day of the collection period, each sheep was given 50 g of Cr-mordanted fibre 1 hr prior to the evening feeding. In addition, 250 ml of Co-EDTA (0.1 g/ml) was infused intraruminally and the animals were then fed. Rumen digesta and duodenal sampling commenced 4 hr after dosing and continued at the same interval for 96 hr. Two samples of rumen fluid were collected: The first rumen fluid samples (30 ml) were preserved for microbial protein estimations by adding 7.5 ml of 0.9% NaCl in 37% formaldehyde solution. The samples were then stored at -20° C. after the preparation of a bacterial pellet by centrifugation at 27,000 g max for 15 min. A portion of the second rumen fluid and faecal samples was dried at 80° C. and ground in a coffee grinder (Braun, Inc. MA) for DM and Cr determination (Uden et al., 1980). Cr concentration in the samples was determined in duplicate by atomic absorption spectrophotometer (Perkin Elmer 560) using Cr standards (Fisher Scientific Co. NJ). The rest of the second rumen fluid sample was centrifuged at 10,000 g max for 10 min and the supernatants analyzed directly for cobalt using 0.1N HCL as the blank. Standards were prepared using cobalt chloride (Fisher Scientific Co. NJ). Marker concentrations were expressed per gram of dry sample. Other analyses included: acid and neutral detergent fibre (Goering and Van Soest, “Forage fiber analysis,” Agric. Handbook No. 379, p. 12 (1970)), total N (Parkinson and Allen, “A wet oxidation procedure suitable for the determination of nitrogen and mineral nutrients in biological materials,” Comm. Soil Sci. Plant Anal. 6:1 (1975)) for RNA concentrations of the rumen bacterial pellets and duodenal samples.

[3] = tested on: dairy cows; assay: Two levels of Tween 80, milk production and feed intake in cows under heat stress (Example 5); format: in vivo, Holstein; conditions: for Drop in milk production: week 11 (heat stress)
Description: Seventy-five dairy cows of the Holstein breed were ranked according to lactation number, days in milk and production level and placed into three equal groups. Treatments were then randomly assigned to individual animals within the groups. There were 25 animals in each dietary treatment group. Cows were offered ad libitum access to a total mixed ration (TMR) based on grass silage, corn silage, grass hay and a commercial dairy concentrate. The treatments consisted of:
Treatment 1—Control diet (TMR).
Treatment 2—TMR containing 0.2% (w/w) Tween 80, and
Treatment 3—TMR containing 0.3% (w/w) Tween 80.
The experiment lasted 12 weeks. All cows were fed the control diet during the first week. This period served as a pretrial week. Cows in each treatment group were then fed their experimental diets for ten weeks. Milk production and feed intake were, monitored from the first week (pretrial) until the 12th week (one week after the experimental diets were withdrawn).
Ambient temperatures exceeded 40° C. during weeks 10 and 11 of the experiment resulting in considerable heat stress in the cows. Milk production and feed intake data are discussed in the light of the heat stress.

[4] = Griffin et al., 1972; cited from earlier work
[5] = In vitro true digestibility (IVTD) of orchardgrass hay, Ankom in vitro system, 22 h
Protocol: The carriers were celite (Fisher Scientific Co. New Jersey, USA), diatomaceous earth (Sigma Chemical Co. St. Louis, Mo.) and LuctaCarrier (Lucta, S. A. Barcelona, Spain). Tween 80 was mixed with the carriers such that the resulting mixture contained 50% Tween 80 (wt/wt). The ability of Tween 80 in these mixtures to improve digestive efficiency was evaluated in vitro with orchardgrass hay that had been ground to pass through a 1 mm screen. Treatments included 0 (control), 0.1 and 0.2% liquid Tween 80, 0.1 and 0.2% Tween 80 in diatomaceous earth, 0.1 and 0.2% Tween 80 in celite, and 0.1 and 0.2% Tween 80 in LuctaCarrier. Appropriate quantities of each substrate were mixed with the additives and incubated in the Ankom in vitro system (Ankom Technology Fairport NY) for 22 h.

[6] = first calf heifers, 0.2% Tween 80, second week of heat stress

polyoxyethylene sorbitan monoleate [Tween 80]
Microbial protein adsorption extent ([1]; 0.05% additive): 1.12b μg/mg | Microbial protein adsorption rate ([1]; 0.05% additive): 0.032b (0.01) μg/mg/min | Microbial protein adsorption extent ([1]; 0.10% additive): 1.21c μg/mg | Microbial protein adsorption rate ([1]; 0.10% additive): 0.034c (0.02) μg/mg/min | Microbial protein adsorption extent ([1]; 0.25% additive): 1.18c μg/mg | Microbial protein adsorption rate ([1]; 0.25% additive): 0.035c (0.01) μg/mg/min | Microbial protein adsorption extent ([1]; 0.50% additive): 1.19c μg/mg | Microbial protein adsorption rate ([1]; 0.50% additive): 0.034c (0.02) μg/mg/min | Digestibility, Acid detergent fibre [2]: 52.68b (0.4) % | Digestibility, Crude protein [2]: 61.25b (0.5) % | Digestibility, Dry matter [2]: 64.70b (0.8) % | Digestibility, Neutral detergent fibre [2]: 60.63b (0.7) % | Increase in digestibility compared to control [2]: 18% | Increase in intake compared to control [2]: 5% | Intake [2]: 2.06b (0.1) % of the body weight | Weight gain ([3]; 0.2% Tween 80, first 30 d): 1 kg | Depression in dry matter intake ([3]; 0.2% Tween 80, first week of heat stress): 3.4% | Weight gain ([3]; 0.2% Tween 80, last 60 days): 9 kg | Depression in dry matter intake ([3]; 0.2% Tween 80, second week of heat stress): 14.4% | Drop in milk production ([3]; 0.2% Tween 80): 23.6% | Weight gain ([3]; 0.3% Tween 80, first 30 d): 2.5 kg | Depression in dry matter intake ([3]; 0.3% Tween 80, first week of heat stress): 6.0% | Weight gain ([3]; 0.3% Tween 80, last 60 days): 4.5 kg | Depression in dry matter intake ([3]; 0.3% Tween 80, second week of heat stress): 12.6% | Drop in milk production ([3]; 0.3% Tween 80): 22% | Fall in milk production ([3]; Tween 80 treatments (0.2 and 0.3%), first week of heat stress (week 10)): about 11% | More milk than control, on average ([3]; first calf heifers, 0.2% Tween 80): 2 kg/day | Increase in milk over control [3, 6]: 13.6% | More milk than control [3, 6]: more than 3.6 kg/day | More milk than control, on average ([3]; mature cows, 0.2% Tween 80): 3.54 kg/day | More milk than control, on average ([3]; mature cows, 0.3% Tween 80): 3.98 kg/day | HLB (hydrophile-lipophile balance) [4]: 15 | In vitro true digestibility (IVTD) ([5]; 0.1% Tween 80): 54.20% | In vitro true digestibility (IVTD) ([5]; 0.2% Tween 80): 54.93%
